From publication PMC5927461, “Activation of host transient receptor potential (TRP) channels by praziquantel stereoisomers” (PLoS Neglected Tropical Diseases, 2018)

Key:
hTRPA1 [1] = target: T1, hTRPA1 (Homo sapiens, UniProt O75762); assay: Single cell confocal Ca2+ imaging (fluo-4) in transfected HEK293 cells; assay type: cell-based; set-up: host or cells: HEK293 (ATCC CRL-1573.3), transient; settings: 100μM
Excerpt: (§1) Human TRPM8 cDNA was a VersaClone from R&D Systems (RDC0188). Plasmids encoding human TRPA1 and human TRPV1 cDNA were purchased from DNASU plasmid repository (HsCD00080227 and HsCD00081472, respectively). The TRP channel coding sequences were subcloned into pCS2+ to introduce a COOH-term myc tag using the InFusion HD method (Clontech), HindIII/XhoI restriction enzymes (NEB) and the following primers: TRPM8 F–TGGGGACGTCGGAGC-aagctt-[…]; TRPM8 R–AAATCGATGGGATGC-ctcgag-[…]; TRPA1 F-GGACGTCGGAGC-aagctt- atgaagcgcagcctgagg; TRPA1 R-TCGATGGGATGC-ctcgag-[…]; TRPV1 F–GGACGTCGGAGC-aagctt-[…]; TRPV1 R-TCGATGGGATGC-ctcgag-cttctccccggaagcgg (where upper case specifies vector-specific sequences, italics indicate restriction sites, and lower case indicates TRP channel specific sequences). Primers are listed in a 5’ to 3’ orientation.
(§2) HEK293 cells (ATCC CRL-1573.3) were cultured in DMEM supplemented with 10% fetal bovine serum (FBS), penicillin (100 units/ml), streptomycin (100 μg/ml), and L-glutamine (290 μg/ml). Cells were transiently transfected (Lipofectamine LTX, Thermo Fisher) at a density of 2x10^6 cells per T-25 cell-culture flask with TRP channel cDNA. For Ca^2+ imaging assays, HEK293 cells were seeded onto 8-chambered coverglass slides (Thermo Fisher, 115411PK), at a density of 1x10^4 cells one day prior to imaging. Cells were washed twice with HBSS, and incubated with fluo-4-AM (4μM), pluronic F127 (0.4%) and probenecid (2.5mM) for 25 minutes at room temperature. Cells were then washed twice with HBSS, and left at room temperature (30 minutes) for de-esterification. Dishes were mounted on an Olympus IX81 microscope and fluorescence changes (λex = 488nM, λem = 513±15nm bandpass filter) monitored using a Yogokawa spinning disk confocal (CSU-X-M1N) and an Andor iXon Ultra 888 EMCCD camera.

hTRPM8 [2] = target: T2, hTRPM8 (Homo sapiens, UniProt Q7Z2W7); assay: as above; assay type: cell-based; set-up: host or cells: HEK293 (ATCC CRL-1573.3), transient; settings: for EC50: confocal imaging, Fig 4E, read-out: EC50, Ca2+ mobilization in TRPM8 expressing cells; for cytoplasmic Ca2+ signal in TRPM8 expressing cells: menthol 300μM, ±PZQ 100μM, (R)-PZQ or (S)-PZQ 50μM
Excerpt: as §1, §2

[3] = test system: mouse mesenteric arteries; assay: Wire myography, mesenteric artery strips precontracted with high K+ (KPSS)
hTRPA1 [4] = target: T1, hTRPA1; assay: TRP channel panel primary screen (FLIPR Calcium 5, stable HEK line); assay type: cell-based; settings: 0.3-300μM; effects over the micromolar range
Method: (§3) ±PZQ, (R)-PZQ and (S)-PZQ were screened against a panel of 17 human TRP channels (SB Drug Discovery, Glasgow). For all hTRPs, except for TRPM5, individual channel constructs were stably expressed in HEK cell lines. TRMP5 was expressed in a stable CHO cell line. In preparation for the assays, cells were trypsinized, counted and seeded (50,000 cells/well) in black, clear-bottomed 96 well plates and incubated overnight. The following day, cells were loaded with a fluorescent indicator (FLIPR Calcium 5 Assay kit for TRPA1, TRPV1, TRPV2, TRPV3, TRPV4, TRPV5, TRPC1, TRPM2, TRPM3 and TRPM8, or a membrane potential dye (FLIPR Membrane Potential Red Assay Kit for TRPC3, TRPC4, TRPC5, TRPC6, TRPC7, TRPM4 and TRPM5) prepared according to the manufacturer’s instructions in HEPES buffered Hank’s balanced salt solution (HBSS). Dye solution (10μl) was added to appropriate wells and incubated at 37°C for 1 hour. All assays were performed at room temperature. Compounds were tested at 0.3, 1, 3, 10, 30, 100μM and 300μM in triplicate in both agonist and antagonist mode to determine EC50 and IC50 values, which were compared with reference compounds. Compounds were screened at a final DMSO concentration of 0.5%. Plates were screened using a Flexstation (Molecular Devices, FX01138), monitoring fluorescence values every ~1.52 seconds. For ‘agonist mode’ testing, 10μl of the appropriate test compound, or standard agonist, was added after 20 seconds and fluorescence monitored for 2 minutes at λex = 485nm, λem = 525nm for Ca^2+ imaging and λex = 530nm, λem = 565nm for membrane potential measurements. For ‘antagonist mode’ testing, test compounds and standard inhibitors were added to appropriate wells and incubated for 10 minutes at room temperature prior to addition of standard agonist compound.

hTRPM8 [5] = target: T2, hTRPM8; assay: as above; assay type: cell-based; settings: 0.3-300μM; effects over the micromolar range
Method: as §3

T2 sequence (Q7Z2W7 whole entry): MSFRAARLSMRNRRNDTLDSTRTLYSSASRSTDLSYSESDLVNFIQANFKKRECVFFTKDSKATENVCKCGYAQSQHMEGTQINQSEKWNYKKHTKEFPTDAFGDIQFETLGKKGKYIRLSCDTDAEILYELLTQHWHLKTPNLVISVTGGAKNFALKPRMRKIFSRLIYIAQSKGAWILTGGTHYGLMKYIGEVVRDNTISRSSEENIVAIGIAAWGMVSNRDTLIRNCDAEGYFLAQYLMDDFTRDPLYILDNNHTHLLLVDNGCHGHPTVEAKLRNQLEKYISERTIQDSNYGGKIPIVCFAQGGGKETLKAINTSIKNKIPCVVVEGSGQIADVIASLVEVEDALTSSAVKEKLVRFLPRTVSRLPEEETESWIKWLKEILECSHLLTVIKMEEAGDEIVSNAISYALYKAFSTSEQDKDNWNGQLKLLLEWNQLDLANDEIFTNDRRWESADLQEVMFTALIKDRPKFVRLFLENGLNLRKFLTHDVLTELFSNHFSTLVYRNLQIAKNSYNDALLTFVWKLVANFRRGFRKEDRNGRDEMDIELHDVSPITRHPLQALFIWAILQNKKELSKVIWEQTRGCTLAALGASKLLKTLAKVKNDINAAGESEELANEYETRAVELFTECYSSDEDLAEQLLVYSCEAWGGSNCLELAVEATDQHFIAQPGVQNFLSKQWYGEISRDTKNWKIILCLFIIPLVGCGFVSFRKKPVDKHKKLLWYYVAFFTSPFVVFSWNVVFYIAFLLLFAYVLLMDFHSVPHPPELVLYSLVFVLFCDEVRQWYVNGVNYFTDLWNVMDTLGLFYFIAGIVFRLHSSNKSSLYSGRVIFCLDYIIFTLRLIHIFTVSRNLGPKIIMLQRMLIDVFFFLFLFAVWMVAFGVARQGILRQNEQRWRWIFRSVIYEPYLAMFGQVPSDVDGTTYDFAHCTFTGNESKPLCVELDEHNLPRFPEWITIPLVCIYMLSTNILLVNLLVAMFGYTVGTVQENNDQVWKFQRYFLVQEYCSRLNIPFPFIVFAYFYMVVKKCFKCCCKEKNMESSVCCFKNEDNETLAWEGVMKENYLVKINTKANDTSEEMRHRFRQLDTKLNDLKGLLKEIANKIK
T1 sequence (O75762 whole entry, the tested form may be a part): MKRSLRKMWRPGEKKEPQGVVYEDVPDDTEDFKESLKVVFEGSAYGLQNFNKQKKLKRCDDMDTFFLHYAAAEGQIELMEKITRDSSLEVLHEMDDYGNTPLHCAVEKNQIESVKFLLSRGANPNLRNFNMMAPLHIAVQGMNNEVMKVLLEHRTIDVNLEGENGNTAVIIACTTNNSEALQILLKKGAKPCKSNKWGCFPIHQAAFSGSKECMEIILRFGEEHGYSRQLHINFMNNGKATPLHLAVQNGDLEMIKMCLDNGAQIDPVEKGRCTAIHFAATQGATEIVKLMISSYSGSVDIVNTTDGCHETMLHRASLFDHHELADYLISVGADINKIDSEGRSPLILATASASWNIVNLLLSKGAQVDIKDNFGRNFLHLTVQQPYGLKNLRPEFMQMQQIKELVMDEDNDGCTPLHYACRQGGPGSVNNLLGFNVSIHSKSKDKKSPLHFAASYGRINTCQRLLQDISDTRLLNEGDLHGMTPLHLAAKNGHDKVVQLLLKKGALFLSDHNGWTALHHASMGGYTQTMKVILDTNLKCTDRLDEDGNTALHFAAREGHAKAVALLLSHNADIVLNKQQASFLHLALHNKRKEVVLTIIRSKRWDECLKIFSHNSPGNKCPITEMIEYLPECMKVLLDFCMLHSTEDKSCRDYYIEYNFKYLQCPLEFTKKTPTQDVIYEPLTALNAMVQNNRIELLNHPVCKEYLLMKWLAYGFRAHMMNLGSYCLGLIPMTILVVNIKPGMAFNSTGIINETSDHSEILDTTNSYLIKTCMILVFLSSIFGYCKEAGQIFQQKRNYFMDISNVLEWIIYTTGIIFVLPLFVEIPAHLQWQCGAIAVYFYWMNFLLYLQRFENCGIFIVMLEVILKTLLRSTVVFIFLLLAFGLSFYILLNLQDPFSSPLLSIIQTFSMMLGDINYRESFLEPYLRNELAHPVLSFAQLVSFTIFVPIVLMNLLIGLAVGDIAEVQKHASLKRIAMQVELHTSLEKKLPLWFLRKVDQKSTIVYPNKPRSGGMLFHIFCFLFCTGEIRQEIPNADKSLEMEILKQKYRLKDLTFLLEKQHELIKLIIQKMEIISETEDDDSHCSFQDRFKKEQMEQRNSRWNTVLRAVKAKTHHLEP

Structure (SMILES)	Ca2+ response in hTRPA1 expressing cells (hTRPA1 [1])	EC50 (hTRPM8 [2]) [µM]	cytoplasmic Ca2+ signal in TRPM8 expressing cells (hTRPM8 [2])	change in tension of KPSS-precontracted vessels ([3]; 50μM, bath application during KPSS-evoked contraction)	extent of relaxation ([3]; WT tissue, 50μM)	activity at hTRPA1 in primary screen (hTRPA1 [4])	activity at hTRPM8 in primary screen (hTRPM8 [5])	relaxation of the KPSS-contracted vessel ([3]; 100μM, peak relaxation) [%]
O=C(C1CCCCC1)N1CC(=O)N2CCc3ccccc3[C@H]2C1 [(S)-PZQ]	activation of hTRPA1	19.2 ± 5.3	evoked cytoplasmic Ca^2+ signals	decrease in tension	~ 30 % of peak KPSS-evoked tone	activated	sole active enantiomer	
O=C(C1CCCCC1)N1CC(=O)N2CCc3ccccc3C2C1 (racemic) [±PZQ, praziquantel]	elicited Ca^2+ responses	19 ± 5	evoked cytoplasmic Ca^2+ signals			displayed activity	displayed activity	61±9
